# Data: ChEMBL document CHEMBL4052799, “Discovery of orally bioavailable cyclohexanol-based NR2B-selective NMDA receptor antagonists with analgesic activity utilizing a scaffold hopping approach” (Bioorg Med Chem Lett, 2017)
# How the values were obtained:
# [1] = target: Glutamate receptor ionotropic, NMDA 2B (Rattus norvegicus, UniProt Q00960); assay: Displacement of [3H]-ifenprodil from NR2B in Wistar rat brain membrane after 120 mins by liquid scintillation counting analysis; assay type: cell membranes
# Chain of Glutamate receptor ionotropic, NMDA 2B (Rattus norvegicus, UniProt Q00960) (Q00960 whole entry): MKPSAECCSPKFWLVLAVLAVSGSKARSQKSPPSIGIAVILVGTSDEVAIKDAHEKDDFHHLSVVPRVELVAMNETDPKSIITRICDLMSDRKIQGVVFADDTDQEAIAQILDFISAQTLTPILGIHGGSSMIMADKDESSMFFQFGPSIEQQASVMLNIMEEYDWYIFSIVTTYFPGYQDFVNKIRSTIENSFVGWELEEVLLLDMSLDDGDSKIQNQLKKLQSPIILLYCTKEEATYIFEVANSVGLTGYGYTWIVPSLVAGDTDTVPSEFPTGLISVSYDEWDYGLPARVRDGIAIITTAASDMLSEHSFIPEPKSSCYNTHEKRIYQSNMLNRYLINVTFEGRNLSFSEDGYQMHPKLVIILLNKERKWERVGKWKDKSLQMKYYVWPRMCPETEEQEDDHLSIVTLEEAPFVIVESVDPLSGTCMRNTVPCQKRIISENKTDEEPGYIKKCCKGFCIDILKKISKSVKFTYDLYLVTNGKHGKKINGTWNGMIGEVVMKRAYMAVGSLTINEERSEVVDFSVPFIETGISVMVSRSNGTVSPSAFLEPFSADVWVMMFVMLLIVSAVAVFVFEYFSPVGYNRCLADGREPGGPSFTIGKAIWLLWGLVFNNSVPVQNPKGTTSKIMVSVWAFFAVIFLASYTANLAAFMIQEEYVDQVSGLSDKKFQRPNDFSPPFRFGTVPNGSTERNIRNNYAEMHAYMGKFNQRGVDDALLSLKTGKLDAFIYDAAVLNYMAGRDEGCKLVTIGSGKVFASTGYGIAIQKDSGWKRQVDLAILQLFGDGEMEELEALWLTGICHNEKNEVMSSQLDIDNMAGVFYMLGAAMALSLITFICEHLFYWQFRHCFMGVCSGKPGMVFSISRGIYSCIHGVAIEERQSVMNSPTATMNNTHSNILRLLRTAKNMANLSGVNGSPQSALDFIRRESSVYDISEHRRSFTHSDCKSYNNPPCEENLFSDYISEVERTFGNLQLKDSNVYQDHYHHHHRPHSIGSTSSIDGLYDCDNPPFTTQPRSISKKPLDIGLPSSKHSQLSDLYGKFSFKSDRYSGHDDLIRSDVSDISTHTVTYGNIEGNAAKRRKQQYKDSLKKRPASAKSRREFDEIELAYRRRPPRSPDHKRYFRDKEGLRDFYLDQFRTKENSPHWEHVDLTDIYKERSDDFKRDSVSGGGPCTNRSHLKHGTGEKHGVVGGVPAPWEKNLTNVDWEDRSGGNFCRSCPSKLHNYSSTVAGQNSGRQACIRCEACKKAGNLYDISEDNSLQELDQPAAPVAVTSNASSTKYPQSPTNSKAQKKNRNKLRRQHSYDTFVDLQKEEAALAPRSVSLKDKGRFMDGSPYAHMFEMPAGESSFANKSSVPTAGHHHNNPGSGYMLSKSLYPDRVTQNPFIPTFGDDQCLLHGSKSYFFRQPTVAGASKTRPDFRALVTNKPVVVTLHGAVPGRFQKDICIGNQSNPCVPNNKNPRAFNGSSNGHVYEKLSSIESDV
# [2] = target: Glutamate receptor ionotropic, NMDA 2B (Mus musculus, UniProt P35438+Q01097); assay: Antagonist activity at mouse NR2B expressed in Hek293 cells co-expressing mouse NR1 assessed as inhibition of glutamic acid/glycine-induced intracellular Ca2+ levels measured after 1 day post induction by Fluo-3/AM dye-based fluorescence assay; assay type: cell-based
# Chain of Glutamate receptor ionotropic, NMDA 2B (Mus musculus, UniProt P35438+Q01097) (Q01097 whole entry, one chain of several): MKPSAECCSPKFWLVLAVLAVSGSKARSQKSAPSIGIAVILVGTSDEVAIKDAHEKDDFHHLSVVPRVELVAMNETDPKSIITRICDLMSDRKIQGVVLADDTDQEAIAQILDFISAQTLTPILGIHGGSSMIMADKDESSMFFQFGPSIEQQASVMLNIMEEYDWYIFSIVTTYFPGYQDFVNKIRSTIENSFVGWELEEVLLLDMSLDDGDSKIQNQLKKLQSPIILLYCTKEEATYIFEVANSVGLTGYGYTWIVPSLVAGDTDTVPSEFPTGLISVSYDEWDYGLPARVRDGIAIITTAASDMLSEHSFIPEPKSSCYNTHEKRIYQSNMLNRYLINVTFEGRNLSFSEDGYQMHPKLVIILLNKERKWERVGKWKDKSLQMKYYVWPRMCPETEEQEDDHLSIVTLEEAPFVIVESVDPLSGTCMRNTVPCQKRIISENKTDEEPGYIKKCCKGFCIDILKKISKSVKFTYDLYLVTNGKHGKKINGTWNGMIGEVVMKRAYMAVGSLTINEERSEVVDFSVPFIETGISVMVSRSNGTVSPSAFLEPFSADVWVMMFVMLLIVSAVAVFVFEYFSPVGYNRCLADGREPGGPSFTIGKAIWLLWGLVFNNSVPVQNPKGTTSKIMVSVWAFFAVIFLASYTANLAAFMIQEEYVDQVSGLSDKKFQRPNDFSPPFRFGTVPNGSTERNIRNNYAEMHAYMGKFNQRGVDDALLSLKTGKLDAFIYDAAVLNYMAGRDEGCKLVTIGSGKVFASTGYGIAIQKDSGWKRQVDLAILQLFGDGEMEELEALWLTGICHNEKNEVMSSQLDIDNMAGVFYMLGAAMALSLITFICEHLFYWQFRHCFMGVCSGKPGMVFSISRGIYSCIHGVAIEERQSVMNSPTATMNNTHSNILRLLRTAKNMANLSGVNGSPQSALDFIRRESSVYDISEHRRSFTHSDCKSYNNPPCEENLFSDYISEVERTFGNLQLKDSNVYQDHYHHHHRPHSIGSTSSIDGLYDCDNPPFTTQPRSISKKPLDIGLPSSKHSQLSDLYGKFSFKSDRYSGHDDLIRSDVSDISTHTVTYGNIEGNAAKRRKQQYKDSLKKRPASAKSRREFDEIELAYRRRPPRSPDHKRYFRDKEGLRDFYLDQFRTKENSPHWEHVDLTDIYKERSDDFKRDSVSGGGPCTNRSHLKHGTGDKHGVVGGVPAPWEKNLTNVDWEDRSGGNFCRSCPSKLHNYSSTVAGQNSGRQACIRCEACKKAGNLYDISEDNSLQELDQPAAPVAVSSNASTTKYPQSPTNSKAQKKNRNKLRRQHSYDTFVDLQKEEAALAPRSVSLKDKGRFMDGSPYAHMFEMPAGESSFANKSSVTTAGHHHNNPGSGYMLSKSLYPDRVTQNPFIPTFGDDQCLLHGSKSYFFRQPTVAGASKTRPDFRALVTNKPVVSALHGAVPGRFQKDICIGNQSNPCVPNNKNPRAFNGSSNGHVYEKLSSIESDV
# [3] = target: hERG (KCNH2) (Homo sapiens, UniProt Q12809); assay: Inhibition of human ERG expressed in HEK293 cells at 1 uM after 10 mins by whole cell patch clamp method relative to control; assay type: cell-based; conditions: HEK293 cells that express hERG
# Chain of hERG (KCNH2) (Q12809 whole entry): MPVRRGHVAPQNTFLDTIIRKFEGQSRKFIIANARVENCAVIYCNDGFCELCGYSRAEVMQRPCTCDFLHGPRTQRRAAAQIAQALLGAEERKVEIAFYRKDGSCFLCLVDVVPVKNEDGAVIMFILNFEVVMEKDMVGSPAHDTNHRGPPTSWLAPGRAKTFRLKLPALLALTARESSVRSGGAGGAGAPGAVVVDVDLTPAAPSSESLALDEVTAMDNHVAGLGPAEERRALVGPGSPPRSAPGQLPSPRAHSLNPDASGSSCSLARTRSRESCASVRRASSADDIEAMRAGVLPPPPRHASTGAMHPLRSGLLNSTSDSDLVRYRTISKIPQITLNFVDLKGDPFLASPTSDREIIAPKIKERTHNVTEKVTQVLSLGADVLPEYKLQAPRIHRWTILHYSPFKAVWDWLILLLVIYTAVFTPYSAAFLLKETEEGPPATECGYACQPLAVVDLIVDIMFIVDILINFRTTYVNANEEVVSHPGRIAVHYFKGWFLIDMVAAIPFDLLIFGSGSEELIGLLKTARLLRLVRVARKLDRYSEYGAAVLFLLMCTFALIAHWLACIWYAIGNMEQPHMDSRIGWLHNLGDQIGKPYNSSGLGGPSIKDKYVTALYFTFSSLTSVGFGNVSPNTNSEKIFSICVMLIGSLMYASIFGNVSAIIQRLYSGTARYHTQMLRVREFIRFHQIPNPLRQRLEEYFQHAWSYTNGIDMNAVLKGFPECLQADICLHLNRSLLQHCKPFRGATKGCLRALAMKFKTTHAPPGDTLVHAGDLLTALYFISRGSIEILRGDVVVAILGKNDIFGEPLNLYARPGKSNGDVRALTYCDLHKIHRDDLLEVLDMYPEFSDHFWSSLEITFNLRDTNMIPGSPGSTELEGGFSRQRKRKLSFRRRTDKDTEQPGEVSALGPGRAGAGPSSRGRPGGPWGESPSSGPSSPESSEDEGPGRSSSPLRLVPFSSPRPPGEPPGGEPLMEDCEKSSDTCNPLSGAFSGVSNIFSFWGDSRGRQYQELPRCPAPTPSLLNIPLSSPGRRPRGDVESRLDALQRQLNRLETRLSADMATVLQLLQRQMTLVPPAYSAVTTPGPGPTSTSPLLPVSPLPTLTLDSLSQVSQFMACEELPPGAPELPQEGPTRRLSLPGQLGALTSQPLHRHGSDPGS
# [4] = Total clearance in Sprague-Dawley rat at 0.5 mg/kg, iv or 1 mg/kg, po administered through cassette dosing; assay type: ADME, organism-based; conditions: in vivo
# [5] = Oral bioavailability in Sprague-Dawley rat at 1 mg/kg administered through cassette dosing; assay type: ADME, organism-based; conditions: in vivo
# [6] = Ratio of drug level in brain to plasma in Sprague-Dawley rat at 0.5 mg/kg, iv administered through cassette dosing measured after 0.5 hrs; assay type: ADME, organism-based; conditions: brain and plasma
# [7] = test system: Mus musculus; assay: Analgesic activity in po dosed formalin-induced chronic pain ICR mouse model assessed as reduction in rate of licking time in early phase at 50 mg/kg administered 30 min prior to formalin challenge measured during first 5 mins post formalin challenge relative to control; assay type: functional
# [8] = test system: Mus musculus; assay: Analgesic activity in po dosed formalin-induced chronic pain ICR mouse model assessed as reduction in rate of licking time in late phase at 50 mg/kg administered 30 min prior to formalin challenge measured during 10 to 30 mins post formalin challenge relative to control; assay type: functional
# [9] = test system: Mus musculus; assay: Analgesic activity in po dosed formalin-induced chronic pain ICR mouse model assessed as reduction in rate of licking time in early phase at 30 mg/kg administered 30 min prior to formalin challenge measured during first 5 mins post formalin challenge relative to control; assay type: functional
# [10] = test system: Mus musculus; assay: Analgesic activity in po dosed formalin-induced chronic pain ICR mouse model assessed as reduction in rate of licking time in late phase at 30 mg/kg administered 30 min prior to formalin challenge measured during 10 to 30 mins post formalin challenge relative to control; assay type: functional
SMILES,IC50 [1] [nM],IC50 [2] [nM],"inhibition at 10 min, 1 µM [3] [%]",clearance [4] [mL/min/kg],bioavailability [5] [%],Kp at 0.5 h [6],inhibition in vivo at 50 mg/kg [7] [%],inhibition in vivo at 50 mg/kg [8] [%],inhibition in vivo at 30 mg/kg [9] [%],inhibition in vivo at 30 mg/kg [10] [%]
O=C(C[C@]1(O)CC[C@@H](Cc2ccccc2)CC1)Nc1ccc2[nH]c(=O)oc2c1,15.8,0.631,13.2,34.1,47.4,0.25,58.1,66.7,–,–
O[C@]1(Cc2cc(-c3cn[nH]c3)on2)CC[C@H](Cc2ccc(OC(F)(F)F)cc2)CC1,79.4,25.1,–,6.2,121,2.51,–,–,76.8,95.4
O=C(Nc1ccc2[nH]c(=O)oc2c1)C(=O)N1CCC(Cc2ccc(F)cc2)CC1 [RADIPRODIL],31.6,3.16,–,37.1,30,1,–,–,–,–
O[C@]1(Cc2cc(-c3cn[nH]c3)on2)CC[C@H](Cc2ccccc2)CC1,39.8,15.8,14,56.5,46.3,1.44,–,–,–,–
O=C(C[C@]1(O)CC[C@H](Cc2ccc(F)cc2)CC1)Nc1ccc2[nH]c(=O)oc2c1,39.8,15.8,12.2,42.3,58,0.23,–,–,–,–
O=C(C[C@]1(O)CC[C@@H](Cc2ccc(F)cc2)CC1)Nc1ccc2[nH]c(=O)oc2c1,25.1,0.631,26.1,36.8,42.4,0.12,–,–,–,–
O=C(C[C@]1(O)CC[C@@H](Cc2ccc(Cl)cc2)CC1)Nc1ccc2[nH]c(=O)oc2c1,25.1,3.16,–,–,–,–,–,–,–,–
O=c1[nH]c2ccc(-c3cc(C[C@]4(O)CC[C@@H](Cc5ccccc5)CC4)no3)cc2o1,100,15.8,–,12.1,8.4,0.92,–,–,–,–
O[C@]1(Cc2cc(-c3cn[nH]c3)on2)CC[C@H](Cc2ccc(F)cc2)CC1,12.6,12.6,22.5,30,78,1.62,–,–,–,–
O[C@]1(Cc2cc(-c3cn[nH]c3)on2)CC[C@H](Cc2ccc(Cl)cc2)CC1,39.8,6.31,32,11.7,72.8,1.31,–,–,–,–
O=c1ccc(-c2cc(C[C@]3(O)CC[C@H](Cc4ccc(Cl)cc4)CC3)no2)c[nH]1,316,63.1,29.2,6.6,38.7,0.47,–,–,–,–
COc1ccc(C[C@H]2CC[C@](O)(Cc3cc(-c4cn[nH]c4)on3)CC2)cc1,39.8,25.1,–,61.8,23.7,1.64,–,–,–,–
O=C(C[C@]1(O)CC[C@H](Cc2ccccc2)CC1)Nc1ccc2[nH]c(=O)oc2c1,31.6,15.8,7.7,35.1,33,0.9,–,–,–,–
O[C@]1(Cc2cc(-c3cn[nH]c3)on2)CC[C@H](Cc2ccc(F)c(F)c2)CC1,79.4,39.8,15,15.2,67.5,1.99,–,–,–,–
O=C(C[C@]1(O)CC[C@@H](Cc2ccc(OC(F)(F)F)cc2)CC1)Nc1ccc2[nH]c(=O)oc2c1,50.1,3.16,–,21,53.4,0.15,–,–,–,–
O=C1Cc2cc(NC(=O)C[C@]3(O)CC[C@@H](Cc4ccccc4)CC3)ccc2N1,31.6,15.8,12.1,16.5,28.2,0.11,–,–,–,–
O=C1CCc2cc(NC(=O)C[C@]3(O)CC[C@@H](Cc4ccccc4)CC3)ccc2N1,31.6,10,11.3,24.4,53.4,0.18,1.5,25.7,–,–
O=C(C[C@]1(O)CC[C@@H](Cc2ccc(C(F)(F)F)cc2)CC1)Nc1ccc2[nH]c(=O)oc2c1,25.1,6.31,–,–,–,–,–,–,–,–
O=C(C[C@]1(O)CC[C@@H](Cc2ccc(F)c(F)c2)CC1)Nc1ccc2[nH]c(=O)oc2c1,25.1,2,–,35.7,12.1,0.14,–,–,–,–
O=c1ccc(-c2cc(C[C@]3(O)CC[C@@H](Cc4ccc(Cl)cc4)CC3)no2)c[nH]1,25.1,1,23,16.8,37.2,0.08,–,–,–,–
O[C@]1(Cc2cc(-c3cn[nH]c3)on2)CC[C@H](Cc2ccc(C(F)(F)F)cc2)CC1,100,12.6,–,4,67.5,2.66,–,–,84.8,96.5
O=C(C[C@]1(O)CC[C@@H](Cc2ccccc2)CC1)Nc1ccc2[nH]ncc2c1,63.1,39.8,18,21.5,23.7,0.9,59.5,74.4,–,–
O=c1ccc(-c2nc(C[C@]3(O)CC[C@@H](Cc4ccc(Cl)cc4)CC3)no2)c[nH]1,126,158,–,–,–,–,–,–,–,–
COc1ccc(C[C@H]2CC[C@](O)(CC(=O)Nc3ccc4[nH]c(=O)oc4c3)CC2)cc1,63.1,1,–,45.9,16,0.11,–,–,–,–
O[C@]1(Cc2cc(-c3cn[nH]c3)on2)CC[C@@H](Cc2ccc(Cl)cc2)CC1,631,200,–,–,–,–,–,–,–,–
O=c1[nH]c2ccc(-c3cc(C[C@]4(O)CC[C@@H](Cc5ccc(Cl)cc5)CC4)no3)cc2o1,200,39.8,–,–,–,–,–,–,–,–
O=c1ccc(-c2cc(C[C@]3(O)CC[C@@H](Cc4ccccc4)CC3)no2)c[nH]1,25.1,10,4.4,37.6,53.1,0.34,–,–,–,–
